Test [1] has as its target FAD-linked sulfhydryl oxidase ALR (Homo sapiens, UniProt P55789). The experiment in a line: ALR-catalysed DTT oxidation blockers – biochemical, H2O2 detection, luminescence, cherry-pick, dose response (AID 493248).
The nature of test [2]: P. falciparum Dd2 growth inhibitors, dose response, SYBR Green, cherry-picked samples (AID 1159567). The class given is functional, cell-based.
The target of test [3] is Luciferin 4-monooxygenase (Photinus pyralis, UniProt P08659). The experiment in a line: inhibition of purified Photinus pyralis luciferase – biochemical, luminescence, dose response (AID 1891).
Luciferin 4-monooxygenase, sequence (P08659 whole entry): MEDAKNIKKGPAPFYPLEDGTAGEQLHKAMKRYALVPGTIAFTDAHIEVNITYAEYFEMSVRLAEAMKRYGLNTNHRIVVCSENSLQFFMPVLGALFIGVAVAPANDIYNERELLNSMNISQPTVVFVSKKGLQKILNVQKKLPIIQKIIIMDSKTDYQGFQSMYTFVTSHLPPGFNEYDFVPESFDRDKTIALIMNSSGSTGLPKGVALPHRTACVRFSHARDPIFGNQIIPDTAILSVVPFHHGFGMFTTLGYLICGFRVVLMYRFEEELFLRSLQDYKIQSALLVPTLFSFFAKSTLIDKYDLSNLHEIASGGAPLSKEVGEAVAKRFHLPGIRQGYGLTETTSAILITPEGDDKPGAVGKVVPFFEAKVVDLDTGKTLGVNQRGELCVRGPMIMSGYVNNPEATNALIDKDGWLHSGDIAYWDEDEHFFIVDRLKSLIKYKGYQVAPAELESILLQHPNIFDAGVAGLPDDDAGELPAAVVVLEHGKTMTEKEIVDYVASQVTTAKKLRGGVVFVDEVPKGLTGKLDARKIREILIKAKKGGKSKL
Test [4] in a line: Luminescence Cell-Based Dose Confirmation HTS to Identify Inhibitors of Platelet Dense Granule Release. [Related pubchem assays: 1663 (Primary HTS), 1678 (Summary of Project)]. It counts as functional.
Test [5] in a line: cells. The class given is functional, cell-based.
A short description of test [6]: cells. The class given is functional, cell-based. This is another data set of the same source.
Test [7] addresses T1, Ubiquitin-conjugating enzyme E2 N (Homo sapiens, UniProt P61088).
T1 sequence (P61088 whole entry): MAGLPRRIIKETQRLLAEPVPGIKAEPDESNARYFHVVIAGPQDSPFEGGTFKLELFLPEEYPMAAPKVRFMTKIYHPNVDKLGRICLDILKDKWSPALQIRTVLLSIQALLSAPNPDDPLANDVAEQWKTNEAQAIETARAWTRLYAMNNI
It counts as functional.

The target in the next test is T2, Protein RecA (Mycobacterium tuberculosis, UniProt P9WHJ3).
T2 sequence (P9WHJ3 whole entry): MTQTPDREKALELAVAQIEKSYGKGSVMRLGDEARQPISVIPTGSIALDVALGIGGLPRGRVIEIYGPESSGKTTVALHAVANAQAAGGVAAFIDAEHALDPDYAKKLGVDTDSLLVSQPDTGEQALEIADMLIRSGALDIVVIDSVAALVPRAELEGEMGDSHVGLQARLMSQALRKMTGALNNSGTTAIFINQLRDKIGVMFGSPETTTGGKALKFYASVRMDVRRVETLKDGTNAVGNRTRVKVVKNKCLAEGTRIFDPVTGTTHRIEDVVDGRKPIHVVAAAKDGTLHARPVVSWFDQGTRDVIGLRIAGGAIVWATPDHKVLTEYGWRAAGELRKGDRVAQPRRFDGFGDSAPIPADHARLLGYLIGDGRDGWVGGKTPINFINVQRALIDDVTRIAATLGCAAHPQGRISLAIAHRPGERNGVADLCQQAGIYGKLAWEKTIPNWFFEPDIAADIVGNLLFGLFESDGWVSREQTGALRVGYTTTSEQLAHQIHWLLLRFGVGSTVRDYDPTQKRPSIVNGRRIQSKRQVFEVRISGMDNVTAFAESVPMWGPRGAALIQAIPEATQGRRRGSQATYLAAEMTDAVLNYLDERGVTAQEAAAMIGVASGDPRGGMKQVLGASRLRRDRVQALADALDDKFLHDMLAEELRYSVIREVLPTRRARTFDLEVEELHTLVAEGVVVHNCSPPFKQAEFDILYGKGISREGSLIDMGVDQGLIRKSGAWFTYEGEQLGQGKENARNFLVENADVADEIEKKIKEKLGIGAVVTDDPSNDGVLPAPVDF
The experiment in a line: Fluorescence Cell-Free Homogeneous Dose Retest to Identify Inhibitors of RecA-Intein Splicing Activity. [Related pubchem assays (depositor defined):AID2097, AID2223, AID489010, AID492950]. It counts as functional.

The target of test [8] is T3, Replicative DNA helicase DnaB (Mycobacterium tuberculosis, UniProt P9WMR3).
T3 sequence (P9WMR3 whole entry): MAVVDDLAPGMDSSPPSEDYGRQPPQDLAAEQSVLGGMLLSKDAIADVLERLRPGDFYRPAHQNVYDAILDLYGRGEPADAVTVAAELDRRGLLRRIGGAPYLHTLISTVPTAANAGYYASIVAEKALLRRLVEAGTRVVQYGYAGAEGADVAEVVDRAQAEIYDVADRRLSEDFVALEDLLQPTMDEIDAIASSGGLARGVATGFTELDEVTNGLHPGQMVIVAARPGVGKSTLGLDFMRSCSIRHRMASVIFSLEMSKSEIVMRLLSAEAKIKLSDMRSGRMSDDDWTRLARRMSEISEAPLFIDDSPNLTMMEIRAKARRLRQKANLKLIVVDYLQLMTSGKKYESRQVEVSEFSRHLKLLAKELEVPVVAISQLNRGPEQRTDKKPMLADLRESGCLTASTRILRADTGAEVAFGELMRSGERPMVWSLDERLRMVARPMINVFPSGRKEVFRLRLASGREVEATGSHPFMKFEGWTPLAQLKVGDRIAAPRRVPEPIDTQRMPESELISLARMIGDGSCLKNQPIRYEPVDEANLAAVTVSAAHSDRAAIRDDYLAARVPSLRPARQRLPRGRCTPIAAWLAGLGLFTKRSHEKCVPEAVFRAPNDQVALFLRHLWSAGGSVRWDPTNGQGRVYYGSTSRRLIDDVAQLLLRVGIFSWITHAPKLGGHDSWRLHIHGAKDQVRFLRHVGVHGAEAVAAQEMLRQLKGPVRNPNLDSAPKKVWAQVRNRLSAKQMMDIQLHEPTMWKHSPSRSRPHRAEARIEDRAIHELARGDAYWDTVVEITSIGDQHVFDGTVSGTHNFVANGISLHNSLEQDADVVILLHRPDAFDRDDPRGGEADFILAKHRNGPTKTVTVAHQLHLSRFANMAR
Description: DnaB intein splicing inhibitors, dose response, biochemical, cell-free fluorescence (AID 449749). The class given is functional.

The next test deals with Nonstructural protein 1 (Influenza A virus, UniProt Q194T2). The class given is functional, Influenza A virus (A/California/07/2009(H1N1)).
Nonstructural protein 1, sequence (Q194T2 whole entry): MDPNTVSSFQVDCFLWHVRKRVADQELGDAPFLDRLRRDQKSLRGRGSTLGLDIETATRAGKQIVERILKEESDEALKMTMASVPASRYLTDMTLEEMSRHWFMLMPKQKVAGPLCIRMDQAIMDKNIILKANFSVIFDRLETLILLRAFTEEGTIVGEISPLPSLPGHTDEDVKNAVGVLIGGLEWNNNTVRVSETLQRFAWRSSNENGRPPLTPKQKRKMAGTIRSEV
The target in the next test is Cytochrome P450 3A4 (Homo sapiens, UniProt P08684).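 Further: CYP3A4 tested as one member of a cytochrome P450 panel screen.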
Cytochrome P450 3A4, sequence (P08684 whole entry): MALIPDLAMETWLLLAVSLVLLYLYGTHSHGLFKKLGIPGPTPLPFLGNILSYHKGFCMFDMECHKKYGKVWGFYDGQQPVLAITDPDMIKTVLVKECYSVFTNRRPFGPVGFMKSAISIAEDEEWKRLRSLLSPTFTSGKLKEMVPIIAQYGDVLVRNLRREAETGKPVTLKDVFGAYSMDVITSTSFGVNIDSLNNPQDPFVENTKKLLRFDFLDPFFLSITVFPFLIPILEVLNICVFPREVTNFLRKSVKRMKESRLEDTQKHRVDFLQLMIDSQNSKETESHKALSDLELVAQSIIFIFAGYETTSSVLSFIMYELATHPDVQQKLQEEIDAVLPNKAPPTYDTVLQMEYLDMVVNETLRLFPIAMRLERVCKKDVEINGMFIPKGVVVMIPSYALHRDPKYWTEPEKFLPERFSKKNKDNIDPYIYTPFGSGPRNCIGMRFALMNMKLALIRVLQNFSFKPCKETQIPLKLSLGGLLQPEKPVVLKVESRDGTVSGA
The target in test [9] is T4, Heat shock factor protein 1 (Mus musculus, UniProt P38532).
T4 sequence (P38532 whole entry): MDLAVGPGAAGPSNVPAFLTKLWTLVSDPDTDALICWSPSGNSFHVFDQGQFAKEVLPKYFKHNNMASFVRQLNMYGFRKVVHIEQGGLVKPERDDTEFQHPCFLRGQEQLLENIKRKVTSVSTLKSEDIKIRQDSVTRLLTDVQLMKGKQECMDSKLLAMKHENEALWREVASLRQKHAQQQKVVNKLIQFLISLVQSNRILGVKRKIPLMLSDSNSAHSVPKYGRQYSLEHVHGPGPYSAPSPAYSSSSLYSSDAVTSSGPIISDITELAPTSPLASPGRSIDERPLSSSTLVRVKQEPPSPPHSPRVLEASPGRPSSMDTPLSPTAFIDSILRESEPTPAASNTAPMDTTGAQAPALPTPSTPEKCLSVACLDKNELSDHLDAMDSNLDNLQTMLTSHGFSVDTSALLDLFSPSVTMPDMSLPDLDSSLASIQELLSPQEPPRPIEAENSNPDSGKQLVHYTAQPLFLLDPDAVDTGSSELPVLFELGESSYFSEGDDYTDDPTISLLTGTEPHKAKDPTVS
Description: decrease of HSF1-responsive luciferase luminescence – cell-based, NIH3T3, dose retest, confirmation (AID 2382).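 Further: NIH3T3 fibroblasts with HSF1-driven luciferase reporter stressed by proteasome inhibitor MG132; luminescence from HSF1-driven luciferase expression after 8 hours of MG132 stress.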 The class given is functional.

The source made the active and inactive calls. Non-standard residues stand in square brackets, D forms with d. Residues, ends and D or L forms follow the SMILES beside them. ξ: configuration not given here. *: point of attachment. ξF = NC(Cc1ccccc1)C(=O)O; Cbz = O=C(OCc1ccccc1)* Some results are limits rather than exact numbers.

FAD-linked sulfhydryl oxidase ALR, sequence (P55789 whole entry): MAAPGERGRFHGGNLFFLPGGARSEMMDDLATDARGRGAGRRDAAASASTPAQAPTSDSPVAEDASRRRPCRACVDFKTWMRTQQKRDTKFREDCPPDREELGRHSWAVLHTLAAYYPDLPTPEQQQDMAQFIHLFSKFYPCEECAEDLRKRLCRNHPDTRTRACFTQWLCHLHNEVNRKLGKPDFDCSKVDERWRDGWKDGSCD

For `Sc1nnc(-c2cccc3ccccc23)n1-c1cccnc1`, the AC50 in [1] was 8.24 µM (active).
For the compound `CN(C)c1cccc(C(=O)NCc2ccccc2)c1`, the AC50 in test [1] was 5.25 µM (active).
On to `CN1CCCCN2[C@@H](CO)[C@@H](c3ccc(-c4cccnc4)cc3)[C@@H]2C1`, for which, in test [2], the AC50 is 6.76 µM (active).
Turning to `COc1cccc(CNC(=O)c2cc(S(=O)(=O)N3CCOCC3)cn2C)c1`, the EC50 in test [3] and in test [4] was > 112 µM (not active) throughout.
For the compound `Cc1ccc(N2C(=O)CSC2c2cccnc2)cc1F` (stereo unspecified), the AC50 in test [1] was 0.193 µM (active).
Turning to `COc1cc2c(cc1OC)C(c1ccccc1)N(S(C)(=O)=O)CC2` (stereo unspecified), the EC50 in the test “cells [5]” and in the test “cells [6]” was > 350 µM (not active) each time.
In the case of `COC(=O)Cc1cc(O)nc(Nc2nc3ccccc3o2)n1`, the IC50 in [7] is > 20 µM (inactive).
Consider `N#CC(c1ccccc1)c1cnccn1` (stereo unspecified), for which the EC50 on Protein RecA is > 380 µM (inactive). In addition, in test [8], the AC50 was > 380 µM (inactive).
Regarding `O=C1NC(=O)/C(=C/c2ccc(OS(=O)(=O)c3ccc(F)cc3F)cc2)N1`, the EC50 in “cells [5]” and in the test “cells [6]” was > 350 µM (not active) in each case.
Regarding `CCN(c1ccc(NC(=O)COC(=O)c2ccc3ccccc3n2)cc1)C(C)C`, at Nonstructural protein 1, the IC50 is 93.5 µM (active). On Cytochrome P450 3A4, the half-maximal activity concentration (AC50) is 39.8 µM (inconclusive).
With `COc1ccc(C2C(C#N)=C(N)Nc3onc(C(C)(C)C)c32)c(OC)c1` (stereo unspecified), the IC50 at Nonstructural protein 1 was > 100 µM (active).
For `Cc1cccc(NC(=O)c2ccc(NCCO)c([N+](=O)[O-])c2)n1`, the concentration for a half-maximal effect (EC50) in test [3] is > 112 µM (not active); in test [4], 25.5 µM (active).
As for `N#CC1=C(N)Oc2[nH]nc(-c3cccs3)c2C1c1ccncc1` (stereo unspecified), the concentration giving a half-maximal response (EC50) at Protein RecA is 5.36 µM (active). Further, the AC50 in test [8] is 31 µM (active).
Regarding `N#Cc1ccc(-c2ccc([C@@H]3[C@@H]4CN(S(=O)(=O)Cc5ccccc5)C[C@H]3N4)cc2)cc1`, the AC50 in [2] is 6.48 µM (active).
Consider `CC(C)N(c1ccccc1)c1ncnc(NCCC(=O)O)c1[N+](=O)[O-]`, for which the EC50 in the test “cells [5]” and in “cells [6]” was > 350 µM (not active) each time.
For the compound `COc1ccc(NC(=O)Nc2ccc3c(c2)CC(=O)N([C@@H](C)CO)C[C@@H](C)[C@H](CN(C)CC2CCCCC2)O3)cc1`, the AC50 in [2] was 4.85 µM (active).
`Cc1cccc(Sc2c([N+](=O)[O-])ncn2C)c1`: in test [1], the AC50 is 0.265 µM (active).
`Cc1ccc(-c2csc(NC(=O)C[n+]3cc(-c4ccc(C)cc4)n4c3CCC4)n2)cc1`: the IC50 in [7] was > 20 µM (inactive).
For `CCOC(=O)C(Cc1ccccc1)NC(=O)CNC(=O)CNC(=O)OCc1ccccc1` (stereo not drawn) (Cbz-Gly-Gly-[ξF]-OEt), the results for the EC50 in test [3] and in test [4] were > 112 µM (not active) and 25 µM (active), respectively.
Turning to `Cc1ccc2cc(CN(Cc3ccco3)C(=O)C3CCCCC3)c(O)nc2c1C`, the EC50 in test [3] and in test [4] was > 112 µM (not active) throughout.
On to `CCOC(=O)C1(Cc2cccc(OC)c2)CCN(CC=C(C)C)CC1`, for which the EC50 in test [3] is > 112 µM (not active); in [4], 21.4 µM (active).
With `OCCN(Cc1cccnc1)Cc1ccccn1`, at Nonstructural protein 1, the IC50 was 4.64 µM (active).
For the compound `CCOc1ccc(-c2nc(CCl)cs2)cc1`, the figures for the EC50 in test [3] and in test [4] were 40.7 µM (active) and > 112 µM (not active), respectively.
As to `CCOC(=O)c1cc(-c2ccccc2)nc2ccc(C)cc12` [NEOCINCHOPHEN], the IC50 in [7] was > 20 µM (inactive).
Regarding `COc1cccc(NC(=O)N2CCN(c3cccc(C)c3)C(C)C2)c1` (stereo unspecified), in [1], the AC50 was 6.28 µM (active).
`CO[C@@H]1CN(C)C(=O)c2ccc(NC(=O)C3CCC3)cc2OC[C@@H](C)N(CC2CCCCC2)C[C@H]1C`: the concentration at half-maximal activity (AC50) in [2] is 4.4 µM (active).
For `NC(=O)c1nsc(C(=O)N(c2cccc(F)c2)C(C(=O)NC2CCCC2)c2ccco2)c1N` (stereo unspecified), the EC50 in test [9] is reported as > 195 µM (not active). Also, in [7], the IC50 is > 20 µM (inactive).
For the compound `Cc1cccc(C)c1NC(=O)C1CCCN1S(=O)(=O)c1ccc(-c2ccc(O)nn2)s1` (stereo unspecified), the concentration for a half-maximal effect (EC50) is > 112 µM (not active) in test [3] and 47.1 µM (active) in [4].
The corresponding values for `CCc1nnc(NC(=O)[C@@H](NC(=O)c2ccc(OC)cc2)C(C)C)s1` are > 112 µM (not active) and > 112 µM (not active).
Consider `COc1ccc2c3c([nH]c2c1)[C@H](CO)N(Cc1ccccc1F)CC31CN(C(=O)C2CCCC2)C1`, for which, in test [2], the AC50 was 9.56 µM (active).
Take `Cc1cccc(-c2noc(CN(C)S(=O)(=O)c3cc(Cl)ccc3Cl)n2)c1`: the EC50 in “cells [5]” and in the test “cells [6]” was > 350 µM (not active) throughout.
As for `CCCc1cc(C(=O)N2CCCC(N3CCN(c4ccc(F)cc4)CC3)C2)no1` (stereo unspecified), in test [1], the AC50 is > 100 µM (inactive).
On the same count and under the same terms, the result for `Cc1cccc(N2CCN(C(=O)c3ccncc3)CC2C)c1` (stereo unspecified) reads 9.32 µM (active).
On to `COc1ccc(CN2CCNC(=O)C2CC(=O)NC2CCCC2)c(OC)c1` (stereo unspecified), for which the EC50 in “cells [5]” and in the test “cells [6]” was > 350 µM (not active) in each case.
Consider `CN(CC(=O)Nc1ccccc1Oc1ccccc1)Cc1ccccc1F`, for which the EC50 in “cells [5]” and in “cells [6]” was > 350 µM (not active) throughout.
With `CCOC(=O)C1CCN(c2ncnc3cc(OC)c(OC)cc23)CC1`, the EC50 in test [3] was > 112 µM (not active); in test [4], 9.14 µM (active).
In the case of `COc1cccc(-n2c(S)nnc2CCn2nc(C)c([N+](=O)[O-])c2C)c1`, the AC50 in test [1] was 10.6 µM (active).
